Key:
[1] = Quantitative Pb2+ detection in NIST SRM 1643e Trace Elements in Water; settings: 1 μM compound, NEt4OH 2:1, 2.5% MeOH and water
Method: The fluorescence emission intensity of the Pb^2+/complex in a sample may be measured and compared to a standard calibration plot or values to determine the Pb^2+ ion concentration in the sample. For example, To further examine the sensitivity and accuracy of the sensor, a NIST standard of trace elements in water (SRM® 1643e) in the concentration range of 1-50 ppb Pb^2+ was used and probed with 1 μM of a compound having the structure of Formula IV. In this case, accurate fluorescence responses were observed from 50 ppb to as low as 10 ppb. Further, compound IV was also used in quantitating the concentration of Pb^2+ in solutions prepared from a lead standard (NIST SRM® 3128).
All spectroscopic measurements were recorded in a solution of 2.5% methanol (for solubility reason) and water. HPLC grade MeOH and distilled water were used for each measurement. Absorption spectra were measured on a Varian Cary 300 spectrometer. Samples for absorption measurement were performed in 1-cm 1-cm quartz cuvettes (3.5 mL volume, Starna). Fluorescence spectra were measured on a Photon Technology International QuantaMaster™4 spectrofluorometer. Fluorescence measurements were performed in 1-cm 1-cm quartz cuvettes (3.5 mL volume, NSG Precision Cells). Fluorescence quantum yields were determined in reference to fluorescein in 0.1 NaOH (φ=0.95). […]

[2] = Stability in acid and base; type: physicochemical
From the text: (§1) These fluorophores are soluble in common organic solvents, for example, but not limited to, chloroform, methylene chloride, acetonitrile, and methanol and in mixtures of methanol and water. […] There is a shoulder near […] and no transition was observed beyond 430 nm. The molar extinction coefficients of these bands are near 10000 or higher. […] The spectral features remain unchanged in a mixed solvent such as 2.5% methanol 97.5% water. […] Thus, in principle, this compound can be used as a pH sensor. That is, the fluorescence emission intensity may vary according to the pH of the environment or solution that the fluorophore is in.

[3] = Fluorescence quantum yield in reference to fluorescein; type: physicochemical
Method: For an acetonitrile solution of fluorophore 7, when excited at […] or 384 nm band, an emission at 411 nm is observed. Similarly when a methanolic solution of fluorophore 7 is excited at 385 nm or 367 nm, an emission at 415 nm is observed. Finally for a solution of fluorophore 7 in the mixed solvent, when excited at 389 nm, an emission is observed at 423 nm (see FIG. 10). A 0.12 value for the quantum yield of fluorophore 7 in methanol was determined in reference to fluorescein in 0.1 M NaOH (φ=0.95) (using the procedure reported by Brannon, et al., J. Phys. Chem. 1978, 82, 705). Fluorophores of the present disclosure are further described in U.S. application Ser. No. 12/020,343, filed Jan. […]
When the fluorescent binder according to the present embodiments binds with Pb^2+ to form a Pb^2+/binder complex, the complex fluoresces with a high optical brightness. For example, according to the present embodiments, the unbound fluorescent binder represented by Formula V (or Formula IV, in its protected form) may have an excitation band with a absorbance maximum λmax at a wavelength centered around 415 nm, an emission band with a emission maximum λmax centered around 465 and a quantum yield for the fluorescence emission of φ=0.12. […] Quantum yields were calculated with reference to the quantum yield of fluorescein (φ=0.95). […]

[4] = Fluorescence emission with Pb2+ versus other metal ions (Example 5, FIG. 51); settings: 5 μM fluorophore, 75 μM Pb^2+, other metal ion 75 μM or 2 millimolar
From the text: According to certain embodiments, the fluorescent binder discussed herein selectively binds to Pb^2+ over other metal ions including other transition metal ions. According to various embodiments, the fluorescence emission intensity of the Pb^2+/binder complex is greater than a fluorescence emission intensity of other metal ion/binder complexes. Other metal ions that may form a metal ion/binder complex that has a lower fluorescence emission intensity than that of the Pb^2+/binder complex include, but are not limited to Li^+, Na^+, K^+, Ca^2+, Mg^2+, Fe^2+, Co^2+, Ni^2+, Cu^2+, Zn^2+, Cd^2+, Mn^2+, Hg^2+, Sn^2+, As^3+, and mixtures thereof. For example, according to one non-limiting embodiment, the Pb^2+/binder complex in the presence of the other metal ions may have a fluorescence emission intensity at least about 10 times greater than the fluorescence emission intensity of another metal ion/binder complex. In other embodiments, the Pb^2+/binder complex in the presence of the other metal may have a fluorescence emission intensity at least about 20 times greater than the fluorescence emission intensity of another metal ion/binder complex. FIG. 51 compares the fluorescence emission intensity of the Pb^2+/binder complex in the presence of the other metal with the fluorescence emission intensity of the other metal ion/binder complexes (i.e., in the absence of Pb^2+). […]

[5] = Turn-on fluorescence response to Pb2+ (Example 3, FIG. 49); settings: 5 μM, 2.5% methanol-water; unbound at 465 nm, Pb^2+ complex at 423 nm
From the text: When the fluorescent binder according to the present embodiments binds with Pb^2+ to form a Pb^2+/binder complex, the complex fluoresces with a high optical brightness. For example, according to the present embodiments, the unbound fluorescent binder represented by Formula V (or Formula IV, in its protected form) may have an excitation band with a absorbance maximum λmax at a wavelength centered around 415 nm, an emission band with a emission maximum λmax centered around 465 and a quantum yield for the fluorescence emission of φ=0.12. When the fluorescent binder is bound to Pb^2+ ions, the resulting Pb^2+/binder complex may have an excitation band with a λmax centered around 389 nm, an emission band with a λmax centered around 423 nm, and a quantum yield of φ=0.63. Quantum yields were calculated with reference to the quantum yield of fluorescein (φ=0.95). […]
In this Example, the “turn on” response of the fluorophore corresponding to Formula V (Formula IV in protected form) was determined. The fluorescence emission spectrum of a 5 μM solution of the fluorophore in 2.5% methanol-water was recorded with a maximum emission intensity observed at λmax=465 nm (expanded spectrum shown in the inset in FIG. 49). […] The fluorescence emission spectrum of the resulting Pb^2+/fluorophore complex was recorded with a maximum fluorescence emission intensity observed at λmax=423 nm as presented in FIG. 49.

[6] = Apparent dissociation constant for Pb2+ from fluorescence of the complex (Hill fit); type: binding; settings: pH=10; read-out: apparent dissociation coefficient, Kd, for Pb^2+
From the text: [drawing 8] or the corresponding thiolate compound (i.e., where one or both thiols of the ene-dithiol are deprotonated). In the presence of Pb^2+ ions and a hydrolyzing agent, the dithiocarbonate functionality of compound IV may be hydrolyzed and the resulting fluorescent binder compound binds with the Pb^2+ to form a Pb^2+/binder complex. According to specific embodiments, the fluorescent binder of the present disclosure has a high sensitivity for Pb^2+ ions, even in the presence of other metal ions. […] In other embodiments, the Kd may be less than 300 nM, or in certain embodiments less than 250 nM. […] As will be understood by one of ordinary skill in the art, the Kd for binding of Pb^2+ may vary according to the conditions of the experiment, including, but not limited to solvent, temperature, pH, etc. It should be noted that in other embodiments, other compounds represented by Formula I may also serve as selective binders of lead, or other metal ions.
All spectroscopic measurements were recorded in a solution of 2.5% methanol (for solubility reason) and water. HPLC grade MeOH and distilled water were used for each measurement. Absorption spectra were measured on a Varian Cary 300 spectrometer. Samples for absorption measurement were performed in 1-cm 1-cm quartz cuvettes (3.5 mL volume, Starna). […]

Solubility = type: physicochemical
From the text: as §1
In addition, the Pb^2+/binder complex fluoresces with greater emission intensity over a wide pH range in aqueous solutions. According to one embodiment the Pb^2+/binder complex fluoresces with a high fluorescence emission intensity, for example with a quantum yield of greater than 0.5 (φ>0.5), at pH values of 10 or less. […] Thus, the term “high fluorescence emission intensity” means a fluorescence emission intensity having a quantum efficiency of greater than 0.5 (φ>0.5 as measured relative to a fluorescein reference). […] With other fluorophores, the fluorescence emission intensity of the fluorophore may decrease at low pH levels. For comparison, as discussed herein, the quantum yield for fluorescence emission of fluorescein decreases at pH levels less than ˜8.

Compound	Pb^2+ range detected quantitatively by increase in fluorescence response [1]	stability in acid ([2]; acid)	stability in base ([2]; base (pH>7))	quantum yield ([3]; in methanol, reference fluorescein in 0.1 M NaOH)	fluorescence emission intensity with Pb^2+ plus other metal ion versus other metal ion alone [4]	maximum fluorescence emission intensity [5]	quantum yield for the fluorescence emission ([3]; unbound binder or Pb^2+ complex, reference fluorescein (φ=0.95))	Kd [6]	solubility in aqueous solution (Solubility)
CC1(C)Oc2nc3ccccc3nc2-c2sc(=O)sc21 [Compound 7, 4,4-dimethyl-4H-5-oxa-1,3-dithia-6,11-diaza-cyclopenta[a]anthracen-2-one]	10-50 ppb	stable in acid	transforms into a less fluorescent substance	0.12					
CC1(C)Oc2nc3ccccc3nc2C(S)=C1S [Formula V]					significantly greater fluorescence emission intensity	~6000 counts/second	0.12	217 nM	soluble in aqueous solution

Reference: US8247551B2, “Lead sensor and methods of use” (priority 2007, dated 2012)
